Experiment in all cases: ≥ marks a high value that may be exact or a test limit, other limits are often not marked, values filed in µg/mL are converted to µM
The test system of assay [1] is Candida albicans ATCC 20032.
For assay [2], the system named is Staphylococcus aureus ATCC 25923.
Assay [3] relates to Escherichia coli ATCC 25922.
The test system of assay [4] is Bacillus subtilis ATCC 6633.
Assay [5] relates to Streptococcus gordonii Challis DL1.
Assay [6] concerns Streptococcus sanguinis NY101.
In assay [7] the test system is Streptococcus mitis ATCC 903.
Assay [8] deals with Lacticaseibacillus casei ATCC 4646.
In assay [9] the test system is Streptococcus mutans.
For assay [10], the system named is Veillonella atypica PK1910.

Converted amounts (≈) assume the structure as drawn.

We go through 4 compounds from DBAASP.

Usually MIC stands for the lowest concentration found to suppress growth.

As to `CC[C@H](C)[C@@H]1NC(=O)[C@H](CO)NC(=O)[C@H](CCCCN)NC(=O)[C@H]([C@@H](C)O)NC(=O)[C@H](Cc2c[nH]c3ccccc23)NC(=O)[C@@H](NC(=O)CNC(=O)[C@H](CCCCN)NC(=O)[C@H](CC(C)C)NC(=O)[C@H](C)NC(=O)[C@H](C)N)CSSC[C@@H](C(=O)N[C@@H](CO)C(=O)NCC(=O)N[C@@H](CCCCN)C(=O)N[C@@H](CCCN=C(N)N)C(=O)O)NC(=O)[C@@H]2CCCN2C(=O)[C@H](CCCCN)NC(=O)[C@@H]2CCCN2C(=O)[C@@H]2CCCN2C1=O` [AALKGCWTKSIPPKPCSGKR], the figures for the MIC in [1] and in [2] were 23.4 µM (≈ 49.8 µg/mL) and 11.7 µM (≈ 24.9 µg/mL), respectively.
Consider `CC[C@H](C)[C@H](NC(=O)CN)C(=O)NCC(=O)NCC(=O)N[C@@H](CCCCN)C(=O)N[C@H](C(=O)N[C@@H](CC(C)C)C(=O)NCC(=O)NCC(=O)N[C@@H](CC(C)C)C(=O)N[C@@H](CCCN=C(N)N)C(=O)N[C@H](C(=O)N[C@@H](C)C(=O)N[C@@H](CC(C)C)C(=O)N[C@@H](CCCCN)C(=O)NCC(=O)N[C@@H](C)C(=O)N[C@@H](C)C(=O)N[C@@H](CCCCN)C(=O)N[C@@H](CCC(=O)O)C(=O)N[C@@H](CC(C)C)C(=O)N[C@@H](C)C(=O)N[C@@H](C)C(=O)N[C@H](C(=O)N[C@@H](Cc1ccc(O)cc1)C(=O)N[C@@H](CC(C)C)C(=O)N[C@@H](Cc1cnc[nH]1)C(N)=O)[C@@H](C)O)[C@@H](C)O)[C@@H](C)CC` [GIGGKILGGLRTALKGAAKELAATYLH], for which the MIC in assay [1] was not below 37.3 µM; in assay [2] it was 1.75 µM (≈ 4.7 µg/mL); in [3], 3.51 µM (≈ 9.4 µg/mL); in assay [4], 28 µM (≈ 75 µg/mL).
Take `NCCCC[C@H](NC(=O)[C@H](Cc1ccccc1)NC(=O)CNC(=O)CNC(=O)CNC(=O)[C@H](Cc1ccccc1)NC(=O)[C@H](Cc1c[nH]c2ccccc12)NC(=O)[C@H](CCCN=C(N)N)NC(=O)[C@H](Cc1c[nH]c2ccccc12)NC(=O)[C@H](CCCN=C(N)N)NC(=O)[C@H](Cc1c[nH]c2ccccc12)NC(=O)[C@@H](N)CCCN=C(N)N)C(=O)N[C@@H](CCCCN)C(=O)N[C@@H](Cc1ccccc1)C(=O)N[C@@H](Cc1c[nH]c2ccccc12)C(=O)N[C@@H](CCCCN)C(=O)N[C@@H](Cc1c[nH]c2ccccc12)C(=O)N[C@@H](Cc1ccccc1)C(=O)N[C@@H](CCCN=C(N)N)C(=O)N[C@@H](CCCN=C(N)N)C(=O)N[C@@H](Cc1ccccc1)C(N)=O` [RWRWRWFGGGFKKFWKWFRRF]: the MIC in [5] turned out to be 5.3 µM (≈ 16 µg/mL); in assay [6], 2.65 µM (≈ 8 µg/mL); in [7], 21.2 µM (≈ 64 µg/mL); in assay [8] it was 2.65 µM (≈ 8 µg/mL); in assay [9], 1.87 µM (≈ 5.66 µg/mL); in assay [10], 2.65 µM (≈ 8 µg/mL).
`CC(C)C[C@H](NC(=O)CNC(=O)CNC(=O)CNC(=O)[C@H](Cc1ccccc1)NC(=O)[C@H](Cc1c[nH]c2ccccc12)NC(=O)[C@H](CCCN=C(N)N)NC(=O)[C@H](Cc1c[nH]c2ccccc12)NC(=O)[C@H](CCCN=C(N)N)NC(=O)[C@H](Cc1c[nH]c2ccccc12)NC(=O)[C@@H](N)CCCN=C(N)N)C(=O)N[C@@H](CCCCN)C(=O)N[C@@H](CCCN=C(N)N)C(=O)N[C@@H](Cc1ccccc1)C(=O)N[C@@H](CC(C)C)C(=O)N[C@@H](CCCCN)C(=O)N[C@@H](Cc1c[nH]c2ccccc12)C(=O)N[C@@H](Cc1ccccc1)C(=O)N[C@@H](CCCCN)C(=O)N[C@@H](CCCN=C(N)N)C(=O)N[C@@H](Cc1ccccc1)C(N)=O` [RWRWRWFGGGLKRFLKWFKRF]: the MIC in assay [5] amounted to 11 µM (≈ 32 µg/mL); in [6], 5.49 µM (≈ 16 µg/mL); in assay [7], 22 µM (≈ 64 µg/mL); in assay [8], 2.74 µM (≈ 8 µg/mL); in assay [9] it was 2.74 µM (≈ 8 µg/mL); in assay [10], 5.49 µM (≈ 16 µg/mL).
